Experimental data as given in patent US20260015358A1, “BICYCLIC DERIVATIVES, COMPOSITIONS AND USES THEREOF” (Danatlas Pharmaceuticals Co., Ltd., priority 2023, published 2026).

How the values were obtained:
[1] = target: T1, WRN [UniPro: Q14191 (WRN_HUMAN), N500-C946] (Homo sapiens (Human), UniProt Q14191); test: WRN unwinding assay (FORKF DNA, fluorescence); format: biochemical; conditions: Table 14
[2] = target: T1, WRN [UniPro: Q14191 (WRN_HUMAN), N500-C946]; test: WRN ATPase assay (ADP-Glo); format: biochemical; conditions: WRN enzymatic activity assay

T1 sequence (Q14191 500-946): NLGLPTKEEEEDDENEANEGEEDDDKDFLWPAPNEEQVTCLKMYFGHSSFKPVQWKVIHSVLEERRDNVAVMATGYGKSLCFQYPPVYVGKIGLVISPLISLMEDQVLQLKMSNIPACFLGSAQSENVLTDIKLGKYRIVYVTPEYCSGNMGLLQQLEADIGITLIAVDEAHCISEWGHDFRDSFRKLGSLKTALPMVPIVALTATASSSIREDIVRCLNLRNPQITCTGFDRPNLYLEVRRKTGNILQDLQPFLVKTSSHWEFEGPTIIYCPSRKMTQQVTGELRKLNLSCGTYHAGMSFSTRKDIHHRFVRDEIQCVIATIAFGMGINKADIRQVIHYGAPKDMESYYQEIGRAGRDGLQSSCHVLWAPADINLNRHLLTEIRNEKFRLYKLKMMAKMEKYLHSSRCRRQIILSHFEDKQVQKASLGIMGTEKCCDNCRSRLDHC

Compound	IC50 [1] [µM]	IC50 [2] [µM]
CCc1c(N2CCN(C(=O)CNC(=O)c3cc(N(C)C)ccc3F)CC2)c(=O)n2nc(C3=CCOCC3)nc2n1CC(=O)Nc1ccc(C(F)(F)F)cc1F [Example 224, N-(2-(4-(2-(3,6-Dihydro-2H-pyran-4-yl)-5-ethyl-4-(2-((2-fluoro-4-(trifluoromethyl)phenyl)amino)-2-oxoethyl)-7-oxo-4,7-dihydro-[1,2,4]triazolo[1,5-a]pyrimidin-6-yl)piperazin-1-yl)-2-oxoethyl)-5-(dimethylamino)-2-fluorobenzamide]	0.1 to 1	< 0.1
CCc1c(N2CCN(C(=O)C(=O)Nc3ccno3)CC2)c(=O)n2nc(C3=CCOCC3)nc2n1CC(=O)Nc1ccc(C(F)(F)F)cc1Cl [Example 354, 2-(4-(4-(2-((2-Chloro-4-(trifluoromethyl)phenyl)amino)-2-oxoethyl)-2-(3,6-dihydro-2H-pyran-4-yl)-5-ethyl-7-oxo-4,7-dihydro-[1,2,4]triazolo[1,5-a]pyrimidin-6-yl)piperazin-1-yl)-N-(isoxazol-5-yl)-2-oxoacetamide]	< 0.1	< 0.1
CCc1c(N2CCN(C(=O)CNC(=O)c3cnc4c(ccn4C)c3O)CC2)c(=O)n2nc(C3=CCOCC3)nc2n1CC(=O)Nc1ccc(C(F)(F)F)cc1Cl [Example 120, N-(2-(4-(4-(2-((2-Chloro-4-(trifluoromethyl)phenyl)amino)-2-oxoethyl)-2-(3,6-dihydro-2H-pyran-4-yl)-5-ethyl-7-oxo-4,7-dihydro-[1,2,4]triazolo[1,5-a]pyrimidin-6-yl)piperazin-1-yl)-2-oxoethyl)-4-hydroxy-1-methyl-1H-pyrrolo[2,3-b]pyridine-5-carboxamide]	< 0.1	0.1 to 1
CCc1c(N2CCN(C(=O)CNC(=O)c3cc(C)no3)CC2)c(=O)n2nc(C3=CCOCC3)nc2n1CC(=O)Nc1ccc(C(F)(F)F)cc1Cl [Example 130, N-(2-(4-(4-(2-((2-Chloro-4-(trifluoromethyl)phenyl)amino)-2-oxoethyl)-2-(3,6-dihydro-2H-pyran-4-yl)-5-ethyl-7-oxo-4,7-dihydro-[1,2,4]triazolo[1,5-a]pyrimidin-6-yl)piperazin-1-yl)-2-oxoethyl)-3-methylisoxazole-5-carboxamide]	< 0.1	< 0.1
CCc1c(N2CCN(C(=O)C(=O)Nc3cncs3)CC2)c(=O)n2nc(C3=CCOCC3)nc2n1CC(=O)Nc1ccc(C(F)(F)F)cc1F [Example 349, 2-(4-(2-(3,6-Dihydro-2H-pyran-4-yl)-5-ethyl-4-(2-((2-fluoro-4-(trifluoromethyl)phenyl)amino)-2-oxoethyl)-7-oxo-4,7-dihydro-[1,2,4]triazolo[1,5-a]pyrimidin-6-yl)piperazin-1-yl)-2-oxo-N-(thiazol-5-yl)acetamide]	< 0.1	< 0.1
CCc1c(N2CCN(C(=O)c3cn(C)[nH]c3=O)CC2)c(=O)n2nc(C3=CCOCC3)nc2n1CC(=O)Nc1ccc(C(F)(F)F)cc1Cl [Example 64, N-(2-Chloro-4-(trifluoromethyl)phenyl)-2-(2-(3,6-dihydro-2H-pyran-4-yl)-5-ethyl-6-(4-(1-methyl-3-oxo-2,3-dihydro-1H-pyrazole-4-carbonyl)piperazin-1-yl)-7-oxo-[1,2,4]triazolo[1,5-a]pyrimidin-4(7H)-yl)acetamide]	< 0.1	0.1 to 1
CCc1c(N2CCN(C(=O)CNC(=O)c3cnn4cccc4c3O)CC2)c(=O)n2nc(C3=CCOCC3)nc2n1CC(=O)Nc1ccc(C(F)(F)F)cc1Cl [Example 109, N-(2-(4-(4-(2-((2-Chloro-4-(trifluoromethyl)phenyl)amino)-2-oxoethyl)-2-(3,6-dihydro-2H-pyran-4-yl)-5-ethyl-7-oxo-4,7-dihydro-[1,2,4]triazolo[1,5-a]pyrimidin-6-yl)piperazin-1-yl)-2-oxoethyl)-4-hydroxypyrrolo[1,2-b]pyridazine-3-carboxamide]	< 0.1	< 0.1
CCc1c(N2CCN(C(=O)C(=O)Nc3cscn3)CC2)c(=O)n2nc(C3=CCOCC3)nc2n1CC(=O)Nc1ccc(C(F)(F)F)cc1Cl [Example 335, 2-(4-(4-(2-((2-Chloro-4-(trifluoromethyl)phenyl)amino)-2-oxoethyl)-2-(3,6-dihydro-2H-pyran-4-yl)-5-ethyl-7-oxo-4,7-dihydro-[1,2,4]triazolo[1,5-a]pyrimidin-6-yl)piperazin-1-yl)-2-oxo-N-(thiazol-4-yl)acetamide]	< 0.1	0.1 to 1
CCc1c(N2CCN(C(=O)c3ncnc4[nH]ccc34)CC2)c(=O)n2nc(C3=CCOCC3)nc2n1CC(=O)Nc1ccc(Cl)cc1C(F)(F)F [Example 69, 2-(6-(4-(7H-Pyrrolo[2,3-d]pyrimidine-4-carbonyl)piperazin-1-yl)-2-(3,6-dihydro-2H-pyran-4-yl)-5-ethyl-7-oxo-[1,2,4]triazolo[1,5-a]pyrimidin-4(7H)-yl)-N-(4-chloro-2-(trifluoromethyl)phenyl)acetamide]	< 0.1	0.1 to 1
CCc1c(N2CCN(C(=O)CNC(=O)N3CCc4ccccc43)CC2)c(=O)n2nc(C3=CCOCC3)nc2n1CC(=O)Nc1ccc(C(F)(F)F)cc1Cl [Example 182, N-(2-(4-(4-(2-((2-Chloro-4-(trifluoromethyl)phenyl)amino)-2-oxoethyl)-2-(3,6-dihydro-2H-pyran-4-yl)-5-ethyl-7-oxo-4,7-dihydro-[1,2,4]triazolo[1,5-a]pyrimidin-6-yl)piperazin-1-yl)-2-oxoethyl) indoline-1-carboxamide]	< 0.1	< 0.1
CCc1c(N2CCN(C(=O)CNC(=O)CC3COC3)CC2)c(=O)n2nc(C3=CCOCC3)nc2n1CC(=O)Nc1ccc(C(F)(F)F)cc1Cl [Example 273, N-(2-Chloro-4-(trifluoromethyl)phenyl)-2-(2-(3,6-dihydro-2H-pyran-4-yl)-5-ethyl-6-(4-((2-(oxetan-3-yl)acetyl)glycyl)piperazin-1-yl)-7-oxo-[1,2,4]triazolo[1,5-a]pyrimidin-4(7H)-yl)acetamide]	< 0.1	0.1 to 1
CCc1c(N2CCN(C(=O)CNC(=O)c3c(O)cc(C)oc3=O)CC2)c(=O)n2nc(C3=CCOCC3)nc2n1CC(=O)Nc1ccc(C(F)(F)F)cc1Cl [Example 295, N-(2-(4-(4-(2-((2-Chloro-4-(trifluoromethyl)phenyl)amino)-2-oxoethyl)-2-(3,6-dihydro-2H-pyran-4-yl)-5-ethyl-7-oxo-4,7-dihydro-[1,2,4]triazolo[1,5-a]pyrimidin-6-yl)piperazin-1-yl)-2-oxoethyl)-4-hydroxy-6-methyl-2-oxo-2H-pyran-3-carboxamide]	> 1	0.1 to 1
CCc1c(N2CCN(C(=O)CNC(=O)N(C)C)CC2)c(=O)n2nc(C3=CCOCC3)nc2n1CC(=O)Nc1ccc(C(F)(F)F)cc1Cl [Example 173, N-(2-Chloro-4-(trifluoromethyl)phenyl)-2-(2-(3,6-dihydro-2H-pyran-4-yl)-6-(4-((dimethylcarbamoyl)glycyl)piperazin-1-yl)-5-ethyl-7-oxo-[1,2,4]triazolo[1,5-a]pyrimidin-4(7H)-yl)acetamide]	0.1 to 1	0.1 to 1
CCc1c(N2CCN(C(=O)C(=O)Nc3cc(C)no3)CC2)c(=O)n2nc(C3=CCOCC3)nc2n1CC(=O)Nc1ccc(C(F)(F)F)cc1F [Example 324, 2-(4-(2-(3,6-Dihydro-2H-pyran-4-yl)-5-ethyl-4-(2-((2-fluoro-4-(trifluoromethyl)phenyl)amino)-2-oxoethyl)-7-oxo-4,7-dihydro-[1,2,4]triazolo[1,5-a]pyrimidin-6-yl)piperazin-1-yl)-N-(3-methylisoxazol-5-yl)-2-oxoacetamide]	< 0.1	< 0.1
CCc1c(N2CCN(C(=O)C(N)=O)CC2)c(=O)n2nc(C3=CCOCC3)nc2n1CC(=O)Nc1ccc(C(F)(F)F)cc1Cl [Example 89, 2-(6-(4-(2-Amino-2-oxoacetyl)piperazin-1-yl)-2-(3,6-dihydro-2H-pyran-4-yl)-5-ethyl-7-oxo-[1,2,4]triazolo[1,5-a]pyrimidin-4(7H)-yl)-N-(2-chloro-4-(trifluoromethyl)phenyl)acetamide]	< 0.1	< 0.1
CCc1c(N2CCN(C(=O)CNC(=O)c3ncccc3F)CC2)c(=O)n2nc(C3=CCOCC3)nc2n1CC(=O)Nc1ccc(C(F)(F)F)cc1Cl [Example 133, N-(2-(4-(4-(2-((2-Chloro-4-(trifluoromethyl)phenyl)amino)-2-oxoethyl)-2-(3,6-dihydro-2H-pyran-4-yl)-5-ethyl-7-oxo-4,7-dihydro-[1,2,4]triazolo[1,5-a]pyrimidin-6-yl)piperazin-1-yl)-2-oxoethyl)-3-fluoropicolinamide]	< 0.1	< 0.1
CCc1c(N2CCN(C(=O)CNC(=O)c3cccc(F)c3O)CC2)c(=O)n2nc(C3=CCOCC3)nc2n1CC(=O)Nc1ccc(C(F)(F)F)cc1Cl [Example 211, N-(2-(4-(4-(2-((2-Chloro-4-(trifluoromethyl)phenyl)amino)-2-oxoethyl)-2-(3,6-dihydro-2H-pyran-4-yl)-5-ethyl-7-oxo-4,7-dihydro-[1,2,4]triazolo[1,5-a]pyrimidin-6-yl)piperazin-1-yl)-2-oxoethyl)-3-fluoro-2-hydroxybenzamide]	< 0.1	< 0.1
CCc1c(N2CCN(C(=O)c3ncc4ncsc4c3O)CC2)c(=O)n2nc(C3=CCOCC3)nc2n1CC(=O)Nc1ccc(C(F)(F)F)cc1Cl [Example 195, N-(2-Chloro-4-(trifluoromethyl)phenyl)-2-(2-(3,6-dihydro-2H-pyran-4-yl)-5-ethyl-6-(4-(7-hydroxythiazolo[4,5-c]pyridine-6-carbonyl)piperazin-1-yl)-7-oxo-[1,2,4]triazolo[1,5-a]pyrimidin-4(7H)-yl)acetamide]	< 0.1	< 0.1
CCc1c(N2CCN(C(=O)CNC(=O)c3ccn(C)n3)CC2)c(=O)n2nc(C3=CCOCC3)nc2n1CC(=O)Nc1ccc(C(F)(F)F)cc1Cl [Example 102, N-(2-(4-(4-(2-((2-Chloro-4-(trifluoromethyl)phenyl)amino)-2-oxoethyl)-2-(3,6-dihydro-2H-pyran-4-yl)-5-ethyl-7-oxo-4,7-dihydro-[1,2,4]triazolo[1,5-a]pyrimidin-6-yl)piperazin-1-yl)-2-oxoethyl)-1-methyl-1H-pyrazole-3-carboxamide]	< 0.1	< 0.1
